Two molecules from paper PMC9329436, “Optimization of the 4-anilinoquin(az)oline scaffold as epidermal growth factor receptor (EGFR) inhibitors for chordoma utilizing a toxicology profiling assay platform” (Scientific Reports, 2022) can be followed below.

Like-named read-outs stand apart in the source and are kept apart here.

What all share (format): biochemical
For assay [1], the target named is 320 wild-type protein kinases (Homo sapiens, UniProt Q13233). The conditions noted are these: singlicate. An excerpt: (§1) Table S4. Profiling of two compounds at two concentrations against 320 wild-type protein kinases; singlicate measurement; Residual activities (% of control).
Chain of 320 wild-type protein kinases (Homo sapiens, UniProt Q13233) (Q13233 whole entry): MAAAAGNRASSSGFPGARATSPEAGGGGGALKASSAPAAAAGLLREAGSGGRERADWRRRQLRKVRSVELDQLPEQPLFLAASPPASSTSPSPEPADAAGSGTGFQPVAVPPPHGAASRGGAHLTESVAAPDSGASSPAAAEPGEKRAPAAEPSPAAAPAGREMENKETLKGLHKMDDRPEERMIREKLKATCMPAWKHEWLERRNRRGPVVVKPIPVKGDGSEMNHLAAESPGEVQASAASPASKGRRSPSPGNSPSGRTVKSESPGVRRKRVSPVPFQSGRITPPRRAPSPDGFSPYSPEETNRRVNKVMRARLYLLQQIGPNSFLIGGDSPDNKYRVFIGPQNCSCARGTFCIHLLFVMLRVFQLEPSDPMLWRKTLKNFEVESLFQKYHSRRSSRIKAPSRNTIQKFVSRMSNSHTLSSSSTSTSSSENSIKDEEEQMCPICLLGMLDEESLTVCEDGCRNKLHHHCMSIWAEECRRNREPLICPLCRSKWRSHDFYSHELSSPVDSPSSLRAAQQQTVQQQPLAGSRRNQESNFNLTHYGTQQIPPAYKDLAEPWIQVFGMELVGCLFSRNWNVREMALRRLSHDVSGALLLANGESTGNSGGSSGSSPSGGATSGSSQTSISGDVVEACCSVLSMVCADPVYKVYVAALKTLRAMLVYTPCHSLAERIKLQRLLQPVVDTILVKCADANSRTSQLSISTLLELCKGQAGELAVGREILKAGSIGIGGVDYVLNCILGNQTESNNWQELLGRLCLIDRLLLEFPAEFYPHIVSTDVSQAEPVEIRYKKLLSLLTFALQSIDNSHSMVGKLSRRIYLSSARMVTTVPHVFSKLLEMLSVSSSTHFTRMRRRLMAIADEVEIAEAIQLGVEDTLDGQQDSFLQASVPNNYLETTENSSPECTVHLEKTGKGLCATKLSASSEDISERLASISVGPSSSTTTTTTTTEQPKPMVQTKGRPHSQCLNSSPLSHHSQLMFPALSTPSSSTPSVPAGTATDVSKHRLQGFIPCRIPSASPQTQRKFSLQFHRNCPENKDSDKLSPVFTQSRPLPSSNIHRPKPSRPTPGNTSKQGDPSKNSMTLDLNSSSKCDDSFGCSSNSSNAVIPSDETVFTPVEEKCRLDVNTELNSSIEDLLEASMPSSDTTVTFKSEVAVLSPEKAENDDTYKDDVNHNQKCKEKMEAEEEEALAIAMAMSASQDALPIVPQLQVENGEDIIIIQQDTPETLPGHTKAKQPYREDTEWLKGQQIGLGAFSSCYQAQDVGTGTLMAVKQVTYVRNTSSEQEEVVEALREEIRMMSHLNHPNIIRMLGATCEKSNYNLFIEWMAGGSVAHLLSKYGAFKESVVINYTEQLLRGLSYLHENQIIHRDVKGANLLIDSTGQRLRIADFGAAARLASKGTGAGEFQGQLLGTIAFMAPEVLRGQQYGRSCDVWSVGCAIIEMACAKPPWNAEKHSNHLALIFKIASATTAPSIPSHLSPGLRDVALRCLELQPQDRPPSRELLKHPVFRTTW
Assay [2] addresses 320 wild-type protein kinases (Homo sapiens, UniProt P27361). The conditions noted are these: singlicate.
Text: as §1

Assay [3] concerns the target 320 wild-type protein kinases (Homo sapiens, UniProt Q9P286). To be noted: singlicate.
Text: as §1

Assay [4] concerns the target T1, 320 wild-type protein kinases (Homo sapiens, UniProt Q09013).
T1 sequence (Q09013 1-629): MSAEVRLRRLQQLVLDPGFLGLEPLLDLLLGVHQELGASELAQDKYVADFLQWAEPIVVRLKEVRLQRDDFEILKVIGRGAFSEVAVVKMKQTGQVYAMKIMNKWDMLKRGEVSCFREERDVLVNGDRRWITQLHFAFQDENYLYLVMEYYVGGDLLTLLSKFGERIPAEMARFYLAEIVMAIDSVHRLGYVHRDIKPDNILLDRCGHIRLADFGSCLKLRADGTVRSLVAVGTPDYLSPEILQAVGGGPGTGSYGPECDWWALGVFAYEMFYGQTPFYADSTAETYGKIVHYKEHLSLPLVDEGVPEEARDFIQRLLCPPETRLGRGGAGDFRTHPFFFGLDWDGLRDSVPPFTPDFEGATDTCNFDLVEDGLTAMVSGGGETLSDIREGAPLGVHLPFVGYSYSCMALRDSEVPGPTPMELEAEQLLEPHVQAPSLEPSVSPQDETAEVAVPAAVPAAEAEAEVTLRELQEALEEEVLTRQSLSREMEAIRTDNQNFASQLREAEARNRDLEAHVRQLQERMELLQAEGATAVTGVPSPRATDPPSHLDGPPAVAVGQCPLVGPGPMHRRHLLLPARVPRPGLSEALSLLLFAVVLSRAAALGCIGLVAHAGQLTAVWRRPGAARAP
The conditions noted are these: DMPK, singlicate.
Text: as §1

Assay [5] concerns the target T2, 320 wild-type protein kinases (Homo sapiens, UniProt P41743).
T2 sequence (P41743 1-596): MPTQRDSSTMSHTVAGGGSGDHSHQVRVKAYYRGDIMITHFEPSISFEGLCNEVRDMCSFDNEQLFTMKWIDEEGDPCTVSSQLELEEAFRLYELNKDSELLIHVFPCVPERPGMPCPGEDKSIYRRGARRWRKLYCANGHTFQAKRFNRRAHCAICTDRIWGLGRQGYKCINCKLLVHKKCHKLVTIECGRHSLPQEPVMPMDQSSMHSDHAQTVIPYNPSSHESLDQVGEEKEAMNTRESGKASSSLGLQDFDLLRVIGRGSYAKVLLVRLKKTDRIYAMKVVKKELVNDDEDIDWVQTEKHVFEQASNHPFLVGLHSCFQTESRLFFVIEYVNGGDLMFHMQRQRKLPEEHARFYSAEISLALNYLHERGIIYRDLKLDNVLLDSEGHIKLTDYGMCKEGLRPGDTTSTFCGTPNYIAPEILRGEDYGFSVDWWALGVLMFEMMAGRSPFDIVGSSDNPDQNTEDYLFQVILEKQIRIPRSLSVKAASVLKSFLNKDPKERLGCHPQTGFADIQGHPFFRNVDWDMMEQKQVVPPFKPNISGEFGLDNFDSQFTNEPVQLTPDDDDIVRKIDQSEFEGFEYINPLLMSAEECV
To be noted: PKC-iota, singlicate.
Text: as §1

The target in assay [6] is T3, 320 wild-type protein kinases (Homo sapiens, UniProt Q8NE63).
T3 sequence (Q8NE63 1-616): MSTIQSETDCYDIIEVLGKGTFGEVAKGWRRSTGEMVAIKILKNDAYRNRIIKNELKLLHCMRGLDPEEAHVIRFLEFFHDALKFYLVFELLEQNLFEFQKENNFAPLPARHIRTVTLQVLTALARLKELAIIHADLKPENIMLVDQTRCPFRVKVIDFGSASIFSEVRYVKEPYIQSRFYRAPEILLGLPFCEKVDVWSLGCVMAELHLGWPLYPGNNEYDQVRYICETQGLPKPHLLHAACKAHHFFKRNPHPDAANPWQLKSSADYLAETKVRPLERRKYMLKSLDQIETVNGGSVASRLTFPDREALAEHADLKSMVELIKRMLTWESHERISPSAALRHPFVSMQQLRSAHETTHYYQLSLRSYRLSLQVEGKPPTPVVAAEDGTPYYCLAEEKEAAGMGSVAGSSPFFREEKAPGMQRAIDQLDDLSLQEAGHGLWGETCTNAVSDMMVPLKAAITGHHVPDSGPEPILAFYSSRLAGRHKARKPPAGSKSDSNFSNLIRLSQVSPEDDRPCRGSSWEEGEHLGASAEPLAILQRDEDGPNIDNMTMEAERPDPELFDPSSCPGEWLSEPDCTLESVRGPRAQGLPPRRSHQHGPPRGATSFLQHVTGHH
The conditions noted are these: singlicate.
Text: as §1

For assay [7], the target named is 320 wild-type protein kinases (Homo sapiens, UniProt Q04759). To be noted: PKC-theta, singlicate.
Chain of 320 wild-type protein kinases (Homo sapiens, UniProt Q04759) (Q04759 whole entry): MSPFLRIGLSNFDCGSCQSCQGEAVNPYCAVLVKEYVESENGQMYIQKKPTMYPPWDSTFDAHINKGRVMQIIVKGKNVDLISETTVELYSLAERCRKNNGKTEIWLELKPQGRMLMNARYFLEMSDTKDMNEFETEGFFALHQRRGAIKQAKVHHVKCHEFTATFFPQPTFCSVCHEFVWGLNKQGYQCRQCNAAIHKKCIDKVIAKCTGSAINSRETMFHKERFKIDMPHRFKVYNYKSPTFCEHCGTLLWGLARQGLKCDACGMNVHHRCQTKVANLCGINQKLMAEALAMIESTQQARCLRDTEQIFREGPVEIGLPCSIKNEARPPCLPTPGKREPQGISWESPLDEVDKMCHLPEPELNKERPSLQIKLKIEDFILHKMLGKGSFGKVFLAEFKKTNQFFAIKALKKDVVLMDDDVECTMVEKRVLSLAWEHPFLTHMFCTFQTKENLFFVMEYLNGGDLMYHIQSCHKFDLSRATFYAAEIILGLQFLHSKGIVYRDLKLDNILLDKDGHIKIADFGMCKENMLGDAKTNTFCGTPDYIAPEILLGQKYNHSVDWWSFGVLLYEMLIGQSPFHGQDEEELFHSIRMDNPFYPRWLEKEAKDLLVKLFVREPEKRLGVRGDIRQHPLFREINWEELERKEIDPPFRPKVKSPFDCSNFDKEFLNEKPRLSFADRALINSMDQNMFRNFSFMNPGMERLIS
Text: as §1

The target in assay [8] is 320 wild-type protein kinases (Homo sapiens, UniProt Q9Y5S2). To be noted: CDC42BPB, singlicate.
Text: as §1

Assay [9] has as its target 320 wild-type protein kinases (Homo sapiens, UniProt P50750). The conditions noted are these: singlicate.
Text: as §1

Assay [10] deals with 320 wild-type protein kinases (Homo sapiens, UniProt P54756). To be noted: singlicate.
Chain of 320 wild-type protein kinases (Homo sapiens, UniProt P54756) (P54756 25-1037): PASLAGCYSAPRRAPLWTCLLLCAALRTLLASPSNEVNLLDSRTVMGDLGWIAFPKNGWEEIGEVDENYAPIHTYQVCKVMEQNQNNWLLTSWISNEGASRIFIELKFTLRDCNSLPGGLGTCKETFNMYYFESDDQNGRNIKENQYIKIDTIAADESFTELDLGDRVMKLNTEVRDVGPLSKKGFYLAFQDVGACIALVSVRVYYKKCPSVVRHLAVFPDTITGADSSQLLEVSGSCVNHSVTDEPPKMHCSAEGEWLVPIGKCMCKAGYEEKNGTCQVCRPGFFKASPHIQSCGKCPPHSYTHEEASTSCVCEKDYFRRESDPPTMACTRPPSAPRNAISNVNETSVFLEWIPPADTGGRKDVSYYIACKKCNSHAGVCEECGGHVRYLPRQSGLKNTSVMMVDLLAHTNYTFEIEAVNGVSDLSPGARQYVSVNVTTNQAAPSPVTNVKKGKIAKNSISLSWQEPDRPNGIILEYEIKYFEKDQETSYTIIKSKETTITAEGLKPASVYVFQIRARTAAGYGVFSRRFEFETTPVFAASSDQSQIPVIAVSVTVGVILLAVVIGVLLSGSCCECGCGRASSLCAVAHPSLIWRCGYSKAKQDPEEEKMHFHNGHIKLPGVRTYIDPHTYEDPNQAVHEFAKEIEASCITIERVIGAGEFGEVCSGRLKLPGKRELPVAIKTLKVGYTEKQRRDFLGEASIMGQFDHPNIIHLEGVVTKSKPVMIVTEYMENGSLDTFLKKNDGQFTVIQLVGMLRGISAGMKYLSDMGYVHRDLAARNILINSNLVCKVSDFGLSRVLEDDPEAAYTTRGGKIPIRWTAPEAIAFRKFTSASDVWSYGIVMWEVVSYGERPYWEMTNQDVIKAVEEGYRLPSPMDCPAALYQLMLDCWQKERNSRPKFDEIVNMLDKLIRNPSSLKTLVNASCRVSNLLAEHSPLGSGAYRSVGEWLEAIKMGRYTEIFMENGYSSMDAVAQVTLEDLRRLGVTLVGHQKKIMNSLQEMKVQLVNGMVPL
Text: as §1

Chain of 320 wild-type protein kinases (Homo sapiens, UniProt Q9P286) (Q9P286 whole entry): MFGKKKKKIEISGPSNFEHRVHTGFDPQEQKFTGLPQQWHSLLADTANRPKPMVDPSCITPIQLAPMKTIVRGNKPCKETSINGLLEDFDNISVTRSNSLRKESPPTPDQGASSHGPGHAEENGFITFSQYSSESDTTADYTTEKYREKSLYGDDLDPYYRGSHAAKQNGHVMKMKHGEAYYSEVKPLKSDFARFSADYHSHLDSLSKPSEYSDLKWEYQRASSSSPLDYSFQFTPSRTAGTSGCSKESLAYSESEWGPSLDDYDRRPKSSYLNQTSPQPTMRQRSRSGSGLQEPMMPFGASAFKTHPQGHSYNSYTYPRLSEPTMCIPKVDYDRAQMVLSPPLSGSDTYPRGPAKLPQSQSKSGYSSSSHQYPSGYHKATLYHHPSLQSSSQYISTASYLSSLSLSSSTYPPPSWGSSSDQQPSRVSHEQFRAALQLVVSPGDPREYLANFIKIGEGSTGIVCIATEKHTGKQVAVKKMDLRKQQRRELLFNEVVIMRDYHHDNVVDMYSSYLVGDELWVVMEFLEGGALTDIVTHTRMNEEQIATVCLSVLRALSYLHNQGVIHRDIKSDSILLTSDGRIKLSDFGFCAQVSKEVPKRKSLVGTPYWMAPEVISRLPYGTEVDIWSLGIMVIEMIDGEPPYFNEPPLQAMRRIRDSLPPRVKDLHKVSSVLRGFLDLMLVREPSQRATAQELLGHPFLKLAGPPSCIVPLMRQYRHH
Chain of 320 wild-type protein kinases (Homo sapiens, UniProt P50750) (P50750 whole entry): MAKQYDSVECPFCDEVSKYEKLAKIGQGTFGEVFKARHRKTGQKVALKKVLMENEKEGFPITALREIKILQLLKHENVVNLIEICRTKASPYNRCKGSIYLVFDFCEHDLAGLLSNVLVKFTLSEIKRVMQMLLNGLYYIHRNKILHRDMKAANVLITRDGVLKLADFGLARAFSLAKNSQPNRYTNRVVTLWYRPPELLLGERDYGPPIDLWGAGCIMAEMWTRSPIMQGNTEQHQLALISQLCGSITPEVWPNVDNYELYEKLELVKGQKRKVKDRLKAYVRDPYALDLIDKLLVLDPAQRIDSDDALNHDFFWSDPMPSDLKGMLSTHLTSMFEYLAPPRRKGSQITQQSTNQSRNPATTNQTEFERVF
Chain of 320 wild-type protein kinases (Homo sapiens, UniProt P27361) (P27361 whole entry): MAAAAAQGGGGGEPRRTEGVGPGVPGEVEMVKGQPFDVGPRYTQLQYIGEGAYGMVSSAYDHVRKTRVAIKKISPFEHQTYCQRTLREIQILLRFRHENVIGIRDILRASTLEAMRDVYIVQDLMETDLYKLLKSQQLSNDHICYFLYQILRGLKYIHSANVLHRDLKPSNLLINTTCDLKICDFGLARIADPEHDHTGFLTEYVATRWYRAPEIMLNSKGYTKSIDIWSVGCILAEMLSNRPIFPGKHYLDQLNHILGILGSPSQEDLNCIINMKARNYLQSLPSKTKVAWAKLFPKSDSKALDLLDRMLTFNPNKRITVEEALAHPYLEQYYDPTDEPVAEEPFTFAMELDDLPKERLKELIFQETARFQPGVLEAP

As for `C#Cc1cc(Nc2ncnc3cc(I)ccc23)ccc1Cl` [Compound 41], the Residual activity in [1] (MAP3K1, 1.0E-06 M) is 93 % of control; in [1] (MAP3K1, 1.0E-07 M) it was 96 % of control; in assay [2] (ERK1, 1.0E-06 M), 97 % of control; in assay [2] (ERK1, 1.0E-07 M), 91 % of control; in assay [3] (PAK7, 1.0E-06 M), 81 % of control; in assay [3] (PAK7, 1.0E-07 M) it was 108 % of control. Moreover, the Residual activity in assay [4] (1.0E-06 M) is 106 % of control; in assay [4] (1.0E-07 M), 121 % of control; in [5] (1.0E-06 M), 104 % of control; in assay [5] (1.0E-07 M), 119 % of control; in assay [6] (HIPK4, 1.0E-06 M), 97 % of control; in assay [6] (HIPK4, 1.0E-07 M) it was 104 % of control. Besides, the Residual activity in assay [7] (1.0E-06 M) is 102 % of control; in assay [7] (1.0E-07 M) it was 101 % of control; in assay [8] (1.0E-06 M) it was 98 % of control; in assay [8] (1.0E-07 M) it was 101 % of control; in assay [9] (CDK9/CycK, 1.0E-06 M), 80 % of control; in [9] (CDK9/CycK, 1.0E-07 M) it was 99 % of control. Further, the Residual activity in assay [9] (CDK9/CycT1, 1.0E-06 M) was 92 % of control; in [9] (CDK9/CycT1, 1.0E-07 M), 95 % of control; in [10] (EPHA5, 1.0E-06 M) it was 126 % of control; in assay [10] (EPHA5, 1.0E-07 M), 128 % of control.
With `C#Cc1cc(Nc2ncnc3cc(OC)c(OC)cc23)ccc1Cl` [Compound 45], the Residual activity is given as 96 % of control in [1] (MAP3K1, 1.0E-06 M); 96 % of control in assay [1] (MAP3K1, 1.0E-07 M); 95 % of control in [2] (ERK1, 1.0E-06 M); 92 % of control in assay [2] (ERK1, 1.0E-07 M); 91 % of control in [3] (PAK7, 1.0E-06 M); 99 % of control in [3] (PAK7, 1.0E-07 M). The Residual activity in [4] (1.0E-06 M) is on record as 104 % of control; in [4] (1.0E-07 M), 103 % of control; in assay [5] (1.0E-06 M), 96 % of control; in [5] (1.0E-07 M), 139 % of control; in assay [6] (HIPK4, 1.0E-06 M) it was 57 % of control; in assay [6] (HIPK4, 1.0E-07 M) it was 98 % of control. The Residual activity in [7] (1.0E-06 M) was 101 % of control; in assay [7] (1.0E-07 M), 109 % of control; in [8] (1.0E-06 M) it was 95 % of control; in assay [8] (1.0E-07 M), 98 % of control; in assay [9] (CDK9/CycK, 1.0E-06 M), 86 % of control; in [9] (CDK9/CycK, 1.0E-07 M), 103 % of control. In addition, the Residual activity in [9] (CDK9/CycT1, 1.0E-06 M) was 88 % of control; in [9] (CDK9/CycT1, 1.0E-07 M) it was 90 % of control; in [10] (EPHA5, 1.0E-06 M), 92 % of control; in assay [10] (EPHA5, 1.0E-07 M), 115 % of control.
